# Columns and labels:
# Assay in all cases: relative viability (nuclei count vs DMSO), 5 days (fraction); higher = more cells survive
# HOP-62 = tested on: HOP-62
# How it was run: (§1)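 Lung cancer cell lines, seeded in 1536-well plates, were treated the following day by pin tool with a single drug or with five library-drug doses (not always all listed) in √10 steps on top of a fixed anchor-drug dose. Cells were fixed and nuclei stained in one step after 5 days, and nuclei were counted. Relative viability is the nuclei count for treated wells divided by that for vehicle wells, reported as medians of duplicate plates.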
# NCI-H1993 = tested on: NCI-H1993
# How it was run: as §1
# NCI-H1355 = tested on: NCI-H1355
# How it was run: as §1
# LCLC-97TM1 = tested on: LCLC-97TM1
# How it was run: as §1
# SK-LU-1 = tested on: SK-LU-1
# How it was run: as §1
# NCI-H2170 = tested on: NCI-H2170
# How it was run: as §1
# HCC-827 = tested on: HCC-827
# How it was run: as §1
# H3255 = tested on: H3255
# How it was run: as §1
# UMC-11 = tested on: UMC-11
# How it was run: as §1
# NCI-H3122 = tested on: NCI-H3122
# How it was run: as §1
# NCI-H1650 = tested on: NCI-H1650
# How it was run: as §1
# ChaGo-K-1 = tested on: ChaGo-K-1
# How it was run: as §1
structure (smiles),measurement,setting,value
Cc1csc(=NC2CCCCC2)n1/N=C/c1ccc(O)c(O)c1O [MIM1] + Nc1nc2[nH]cc(CCc3ccc(C(=O)N[C@@H](CCC(=O)O)C(=O)O)cc3)c2c(=O)[nH]1 [Pemetrexed] (partner 0.2 µM),relative viability,HOP-62; first compound 2 µM,0.385
same,relative viability,HOP-62; first compound 6.325 µM,0.328
same,relative viability,HOP-62; first compound 20 µM,0.127
same,relative viability,NCI-H1993; first compound 0.2 µM,0.572
same,relative viability,NCI-H1993; first compound 0.6325 µM,0.553
same,relative viability,NCI-H1993; first compound 2 µM,0.596
same,relative viability,NCI-H1993; first compound 6.325 µM,0.481
same,relative viability,NCI-H1993; first compound 20 µM,0.384
same,relative viability,NCI-H1355; first compound 0.2 µM,1.05
same,relative viability,NCI-H1355; first compound 0.6325 µM,0.932
same,relative viability,NCI-H1355; first compound 2 µM,1.07
same,relative viability,NCI-H1355; first compound 6.325 µM,0.863
same,relative viability,NCI-H1355; first compound 20 µM,0.616
same,relative viability,LCLC-97TM1; first compound 0.2 µM,0.147
same,relative viability,LCLC-97TM1; first compound 0.6325 µM,0.142
same,relative viability,LCLC-97TM1; first compound 2 µM,0.167
same,relative viability,LCLC-97TM1; first compound 6.325 µM,0.172
same,relative viability,LCLC-97TM1; first compound 20 µM,0.054
same,relative viability,SK-LU-1; first compound 0.2 µM,0.995
same,relative viability,SK-LU-1; first compound 0.6325 µM,1.09
same,relative viability,SK-LU-1; first compound 2 µM,0.972
same,relative viability,SK-LU-1; first compound 6.325 µM,0.892
same,relative viability,SK-LU-1; first compound 20 µM,0.694
same,relative viability,NCI-H2170; first compound 0.2 µM,0.265
same,relative viability,NCI-H2170; first compound 0.6325 µM,0.252
same,relative viability,NCI-H2170; first compound 2 µM,0.247
same,relative viability,NCI-H2170; first compound 6.325 µM,0.254
same,relative viability,NCI-H2170; first compound 20 µM,0.215
same,relative viability,HCC-827; first compound 0.2 µM,0.275
same,relative viability,HCC-827; first compound 0.6325 µM,0.249
same,relative viability,HCC-827; first compound 2 µM,0.263
same,relative viability,HCC-827; first compound 6.325 µM,0.246
same,relative viability,HCC-827; first compound 20 µM,0.167
same,relative viability,H3255; first compound 0.2 µM,0.539
same,relative viability,H3255; first compound 0.6325 µM,0.553
same,relative viability,H3255; first compound 2 µM,0.532
same,relative viability,H3255; first compound 6.325 µM,0.556
same,relative viability,H3255; first compound 20 µM,0.312
same,relative viability,UMC-11; first compound 0.2 µM,0.721
same,relative viability,UMC-11; first compound 0.6325 µM,0.848
same,relative viability,UMC-11; first compound 2 µM,0.815
same,relative viability,UMC-11; first compound 6.325 µM,0.739
same,relative viability,UMC-11; first compound 20 µM,0.369
same,relative viability,NCI-H3122; first compound 0.2 µM,0.195
same,relative viability,NCI-H3122; first compound 0.6325 µM,0.194
same,relative viability,NCI-H3122; first compound 2 µM,0.219
same,relative viability,NCI-H3122; first compound 6.325 µM,0.148
same,relative viability,NCI-H3122; first compound 20 µM,0.245
same,relative viability,NCI-H1650; first compound 0.2 µM,0.341
same,relative viability,NCI-H1650; first compound 0.6325 µM,0.393
same,relative viability,NCI-H1650; first compound 2 µM,0.363
same,relative viability,NCI-H1650; first compound 6.325 µM,0.191
same,relative viability,NCI-H1650; first compound 20 µM,0.202
same,relative viability,ChaGo-K-1; first compound 0.2 µM,0.255
same,relative viability,ChaGo-K-1; first compound 0.6325 µM,0.269
same,relative viability,ChaGo-K-1; first compound 2 µM,0.263
same,relative viability,ChaGo-K-1; first compound 6.325 µM,0.257
same,relative viability,ChaGo-K-1; first compound 20 µM,0.189

# Reference: the supplement of paper PMC10307832
